From the supplement of paper PMC10307832

Key:
Experiment in all cases: relative viability (nuclei count vs DMSO), 5 days (fraction); higher = more cells survive
PC-3 [JPC-3] = test system: PC-3 [JPC-3]
Summary of the method: (§1)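 After 5 days of treatment, lung cancer cells in 1536-well plates were fixed and stained in a single step (final 0.05% Triton X-100, 1% formaldehyde, 1 ug/ml Hoechst) and their nuclei counted on 4× images. Treatment had been applied by pin tool the day after seeding as one drug alone or as a fixed anchor-drug dose with five library-drug doses (not always all listed) in √10 steps. Relative viability is the nuclei count of treated wells divided by that of vehicle wells, and values are medians of duplicate plates.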

NCI-H2126 = test system: NCI-H2126
Summary of the method: as §1

NCI-H1975 = test system: NCI-H1975
Summary of the method: as §1

NCI-H1915 = test system: NCI-H1915
Summary of the method: as §1

NCI-H1755 = test system: NCI-H1755
Summary of the method: as §1

LXF-289 = test system: LXF-289
Summary of the method: as §1

NCI-H647 = test system: NCI-H647
Summary of the method: as §1

NCI-H2228 = test system: NCI-H2228
Summary of the method: as §1

HCC-15 = test system: HCC-15
Summary of the method: as §1

NCI-H2347 = test system: NCI-H2347
Summary of the method: as §1

HOP-62 = test system: HOP-62
Summary of the method: as §1

A-427 = test system: A-427
Summary of the method: as §1

LC-2-ad = test system: LC-2-ad
Summary of the method: as §1

NCI-H1734 = test system: NCI-H1734
Summary of the method: as §1

NCI-H1792 = test system: NCI-H1792
Summary of the method: as §1

RERF-LC-KJ = test system: RERF-LC-KJ
Summary of the method: as §1

NCI-H358 = test system: NCI-H358
Summary of the method: as §1

HCC-78 = test system: HCC-78
Summary of the method: as §1

SK-LU-1 = test system: SK-LU-1
Summary of the method: as §1

SW 1573 = test system: SW 1573
Summary of the method: as §1

Cc1sc2c(c1C)C(c1ccc(Cl)cc1)=N[C@@H](CC(=O)OC(C)(C)C)c1nnc(C)n1-2 [JQ1] + C[C@]1(O)C[C@@H](c2nc(-c3ccc4ccc(-c5ccccc5)nc4c3)c3c(N)nccn32)C1 [Linsitinib] (partner 1 µM) showed a relative viability (PC-3 [JPC-3]; first compound 0.04 µM) of 0.942, a relative viability (PC-3 [JPC-3]; first compound 0.1265 µM) of 0.998 and a relative viability (PC-3 [JPC-3]; first compound 0.4 µM) of 1.06. It also gave a relative viability (PC-3 [JPC-3]; first compound 1.265 µM) of 0.79, a relative viability (PC-3 [JPC-3]; first compound 4 µM) of 0.666 and a relative viability (NCI-H2126; first compound 0.04 µM) of 0.725. For the same compound, the relative viability (NCI-H2126; first compound 0.1265 µM) was 1.52, the relative viability (NCI-H2126; first compound 0.4 µM) was 0.651 and the relative viability (NCI-H2126; first compound 1.265 µM) was 0.559. For the same compound, the relative viability (NCI-H2126; first compound 4 µM) was 0.432, the relative viability (NCI-H1975; first compound 0.04 µM) was 0.864 and the relative viability (NCI-H1975; first compound 0.1265 µM) was 0.835. The relative viability (NCI-H1975; first compound 0.4 µM) was 0.723, the relative viability (NCI-H1975; first compound 1.265 µM) was 0.434 and the relative viability (NCI-H1975; first compound 4 µM) was 0.379. It also gave a relative viability (NCI-H1915; first compound 0.04 µM) of 1.15, a relative viability (NCI-H1915; first compound 0.1265 µM) of 0.966 and a relative viability (NCI-H1915; first compound 0.4 µM) of 1.08. The relative viability (NCI-H1915; first compound 1.265 µM) was 0.652, the relative viability (NCI-H1915; first compound 4 µM) was 0.383 and the relative viability (NCI-H1755; first compound 0.04 µM) was 0.985. It also gave a relative viability (NCI-H1755; first compound 0.1265 µM) of 0.987, a relative viability (NCI-H1755; first compound 0.4 µM) of 1.01 and a relative viability (NCI-H1755; first compound 1.265 µM) of 0.763. It also gave a relative viability (NCI-H1755; first compound 4 µM) of 0.709, a relative viability (LXF-289; first compound 0.04 µM) of 0.986 and a relative viability (LXF-289; first compound 0.1265 µM) of 0.968. The relative viability (LXF-289; first compound 0.4 µM) was 0.903, the relative viability (LXF-289; first compound 1.265 µM) was 0.761 and the relative viability (LXF-289; first compound 4 µM) was 0.34. It also gave a relative viability (NCI-H647; first compound 0.04 µM) of 1.12, a relative viability (NCI-H647; first compound 0.1265 µM) of 0.754 and a relative viability (NCI-H647; first compound 0.4 µM) of 0.568. The relative viability (NCI-H647; first compound 1.265 µM) was 0.151, the relative viability (NCI-H647; first compound 4 µM) was 0.16 and the relative viability (NCI-H2228; first compound 0.04 µM) was 1. For the same compound, the relative viability (NCI-H2228; first compound 0.1265 µM) was 0.743, the relative viability (NCI-H2228; first compound 0.4 µM) was 0.688 and the relative viability (NCI-H2228; first compound 1.265 µM) was 0.404. It also gave a relative viability (NCI-H2228; first compound 4 µM) of 0.357, a relative viability (HCC-15; first compound 0.04 µM) of 0.732 and a relative viability (HCC-15; first compound 0.4 µM) of 0.769. The relative viability (HCC-15; first compound 1.265 µM) was 0.542, the relative viability (HCC-15; first compound 4 µM) was 0.476 and the relative viability (NCI-H2347; first compound 0.04 µM) was 0.934. The relative viability (NCI-H2347; first compound 0.1265 µM) was 0.747, the relative viability (NCI-H2347; first compound 0.4 µM) was 0.743 and the relative viability (NCI-H2347; first compound 1.265 µM) was 0.632. For the same compound, the relative viability (NCI-H2347; first compound 4 µM) was 0.45, the relative viability (HOP-62; first compound 0.04 µM) was 1.01 and the relative viability (HOP-62; first compound 0.1265 µM) was 0.869. The relative viability (HOP-62; first compound 0.4 µM) was 0.694, the relative viability (HOP-62; first compound 1.265 µM) was 0.11 and the relative viability (HOP-62; first compound 4 µM) was 0.106. The relative viability (A-427; first compound 0.04 µM) was 1.19, the relative viability (A-427; first compound 0.1265 µM) was 1.04 and the relative viability (A-427; first compound 0.4 µM) was 1.14. The relative viability (A-427; first compound 1.265 µM) was 1.06, the relative viability (A-427; first compound 4 µM) was 0.721 and the relative viability (LC-2-ad; first compound 0.04 µM) was 0.753. The relative viability (LC-2-ad; first compound 0.1265 µM) was 0.773, the relative viability (LC-2-ad; first compound 0.4 µM) was 0.463 and the relative viability (LC-2-ad; first compound 1.265 µM) was 0.253. The relative viability (LC-2-ad; first compound 4 µM) was 0.265, the relative viability (NCI-H1734; first compound 0.04 µM) was 0.831 and the relative viability (NCI-H1734; first compound 0.1265 µM) was 0.823. For the same compound, the relative viability (NCI-H1734; first compound 0.4 µM) was 0.879, the relative viability (NCI-H1734; first compound 1.265 µM) was 0.63 and the relative viability (NCI-H1734; first compound 4 µM) was 0.418. For the same compound, the relative viability (NCI-H1792; first compound 0.04 µM) was 0.587, the relative viability (NCI-H1792; first compound 0.4 µM) was 0.569 and the relative viability (NCI-H1792; first compound 1.265 µM) was 0.31. It also gave a relative viability (NCI-H1792; first compound 4 µM) of 0.274, a relative viability (RERF-LC-KJ; first compound 0.04 µM) of 0.865 and a relative viability (RERF-LC-KJ; first compound 0.1265 µM) of 1.07. The relative viability (RERF-LC-KJ; first compound 0.4 µM) was 0.91, the relative viability (RERF-LC-KJ; first compound 1.265 µM) was 0.782 and the relative viability (RERF-LC-KJ; first compound 4 µM) was 0.631. The relative viability (NCI-H358; first compound 0.04 µM) was 0.645, the relative viability (NCI-H358; first compound 0.1265 µM) was 0.829 and the relative viability (NCI-H358; first compound 0.4 µM) was 0.715. For the same compound, the relative viability (NCI-H358; first compound 1.265 µM) was 0.442, the relative viability (NCI-H358; first compound 4 µM) was 0.45 and the relative viability (HCC-78; first compound 0.04 µM) was 0.536. The relative viability (HCC-78; first compound 0.1265 µM) was 0.438, the relative viability (HCC-78; first compound 0.4 µM) was 0.403 and the relative viability (HCC-78; first compound 1.265 µM) was 0.255. The relative viability (HCC-78; first compound 4 µM) was 0.249, the relative viability (SK-LU-1; first compound 0.04 µM) was 1.16 and the relative viability (SK-LU-1; first compound 0.1265 µM) was 0.952. It also gave a relative viability (SK-LU-1; first compound 0.4 µM) of 0.782, a relative viability (SK-LU-1; first compound 1.265 µM) of 0.239 and a relative viability (SK-LU-1; first compound 4 µM) of 0.178. For the same compound, the relative viability (SW 1573; first compound 0.04 µM) was 0.697, the relative viability (SW 1573; first compound 0.1265 µM) was 0.789 and the relative viability (SW 1573; first compound 0.4 µM) was 0.711. It also gave a relative viability (SW 1573; first compound 1.265 µM) of 0.339 and a relative viability (SW 1573; first compound 4 µM) of 0.323.
